Results reported in patent US20090105278A1, “Selective inhibitors of human corticosteroid syntheses” (Universitat Des Saarlandes, priority 2004, published 2009).
Structures can show the parent of a compound that is named as a salt.

Key:
[1] = target: T1, human CYP11B2 (Homo sapiens, UniProt P19099); assay: V79 MZh 11B2 cells inhibition test; format: cell-based; set-up: expressed in transfected cells; host or cells: V79 MZh11B2 (Chinese hamster lung fibroblasts); conditions: hamster fibroblasts which express human CYP11B2; deoxycorticosterone substrate 100 nM; read-out: IC50 V79 11B2 hCYP11B2
T1 sequence (P19099 25-503): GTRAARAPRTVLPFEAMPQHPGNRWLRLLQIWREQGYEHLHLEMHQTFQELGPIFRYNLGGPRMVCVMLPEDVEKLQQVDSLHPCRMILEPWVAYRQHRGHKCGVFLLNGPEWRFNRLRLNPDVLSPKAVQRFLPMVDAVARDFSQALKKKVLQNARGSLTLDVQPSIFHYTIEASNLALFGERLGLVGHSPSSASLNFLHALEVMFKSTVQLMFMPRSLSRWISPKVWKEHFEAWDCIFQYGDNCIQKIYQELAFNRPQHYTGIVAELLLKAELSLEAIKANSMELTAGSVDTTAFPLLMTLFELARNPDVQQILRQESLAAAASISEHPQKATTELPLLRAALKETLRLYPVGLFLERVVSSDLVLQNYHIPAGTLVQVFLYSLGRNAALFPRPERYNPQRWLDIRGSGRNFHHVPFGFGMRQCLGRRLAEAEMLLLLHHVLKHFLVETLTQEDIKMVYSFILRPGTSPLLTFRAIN
Procedure: Both cell lines were cultured in DMEM^+ containing […] and the antibiotics penicillin and streptomycin (10%) for protection from bacterial contamination. The cells were passaged every 2-3 days after treatment with trypsin/EDTA because the doubling rate was 1-2 days depending on the number of cells. […] When there was further need, freshly thawed cells were employed.
Thereafter, the plate was stored at 37° C. and […] in a CO2 incubator. The V79 MZh 11B1 cells were incubated for 120 min, and the V79 MZh 11B2 cells were incubated for 40 min. Controls without inhibitor were treated in the same way. The enzyme reactions were quenched by extracting the supernatant with 500 μl of EtOAc. The samples were centrifuged (10,000 g, 2 min), the solvent was removed and evaporated.
For V79 MZh11B2, the conversion rate was obtained in accordance with equation 3: […]
It was calculated by determining the percent inhibition for at least 3 different inhibitor concentrations, which must all be in the linear range of the sigmoidal IC50 curve (log C/% inhibition).
The calculation was effected by linear regression. The values determined were used only if they formed a straight line with a reliability of […].
The plate was developed twice with the mobile solvent chloroform:methanol:water (300:20:1). Unlabeled 11-deoxycorticosterone and corticosterone were applied as a reference for the CYP11B1 reaction. For the CYP11B2 reaction, 11-deoxycorticosterone, corticosterone, 18-hydroxycorticosterone and aldosterone were used as references. The detection of the unlabeled references was effected at 260 nm. Subsequently, imaging plates (BAS MS2340, for ^14C samples, Raytest, Straubenhardt, Germany) were exposed to the HPTLC plates for 48 h. The imaging plates were scanned with the phosphoimager system Fuji FLA 3000 (Raytest, Straubenhardt, Germany), and the steroids were quantified.

[2] = target: T2, bovine adrenal CYP11B (Bos taurus, UniProt P15150); assay: Percent inhibition of bovine CYP11B (adrenal mitochondria); conditions: corticosterone substrate 200 μM, inhibitor 1 μM; for % Inhibition bovine bCYP11B: bovine adrenal mitochondria, 1 mg/ml protein; for inhibition at 1 µM: read-out: % Inhibition bovine bCYP11B, bovine adrenal mitochondria, 1 mg/ml protein
T2 sequence (P15150 25-503): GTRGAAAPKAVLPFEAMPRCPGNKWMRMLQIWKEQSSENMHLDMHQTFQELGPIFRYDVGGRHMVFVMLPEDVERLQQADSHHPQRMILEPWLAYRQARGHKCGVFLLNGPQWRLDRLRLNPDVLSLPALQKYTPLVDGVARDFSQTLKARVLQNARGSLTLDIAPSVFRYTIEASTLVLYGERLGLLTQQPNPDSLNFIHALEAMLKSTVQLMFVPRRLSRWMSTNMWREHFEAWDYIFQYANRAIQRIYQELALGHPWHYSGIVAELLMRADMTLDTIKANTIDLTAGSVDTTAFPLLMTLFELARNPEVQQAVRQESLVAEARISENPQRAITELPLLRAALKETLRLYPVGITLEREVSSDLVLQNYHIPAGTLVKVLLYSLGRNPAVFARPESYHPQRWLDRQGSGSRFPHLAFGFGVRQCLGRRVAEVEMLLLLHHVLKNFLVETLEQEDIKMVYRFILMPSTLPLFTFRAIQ
Procedure: Bovine adrenal glands obtained freshly after slaughtering were stored in ice cold Tris-sucrose buffer (0.25 M sucrose, 0.05 M Tris; pH 7.4) until processed. After removing the appending adipose tissue, the adrenal medulla was carefully separated from the adrenal cortex using scissors. The pieces of adrenal cortex were coarsely comminuted with scissors, washed with Tris-sucrose buffer, weighed and finely comminuted in the above buffer (2 ml per g of tissue) with a hand mixer. Thereafter, the tissue was homogenized with an Ultra-Turrax mixer. For separating coarse cell debris and the nuclei, the homogenizate was centrifuged twice for 15 min at 900 g and 4° C. The supernatant was subsequently centrifuged for 35 min at 11,000 g for recovering the mitochondrial fraction. For purifying the mitochondrial fraction, the precipitate was resuspended in Tri-sucrose buffer and again centrifuged at 11,000 g for 35 min. This washing step was performed two times in total. After the last centrifugation, the pellet was resuspended in Tris-sucrose buffer containing 0.001 M EDTA and frozen at −70° C.
The substrate corticosterone was dissolved in methanol and diluted with Tris buffer to a final concentration of 200 μM. The inhibitors were also dissolved in methanol and diluted with buffer to a final concentration of 1 μM. […] Corticosterone (200 μM) was incubated with inhibitor (1 μM) and mitochondrial enzyme (0.5 mg/0.5 ml) with the addition of a regenerating system consisting of NADP^+ (1 mM), glucose-6-phosphate (7 mM) and glucose-6-Phosphate dehydrogenase (1 IU/0.5 ml). Up to 5 inhibitors per test could be incubated in duplicate. […] After preincubation for 5 minutes (30° C.; water bath), the reaction was started by adding mitochondrial suspension. […] The blind values were admixed with 250 μl of HCl before the enzyme was pipetted in. The steroids were separated off by shaking with 1 ml of ethyl acetate (10 min). After centrifugation (15,000 g, 10 min), 900 μl of the organic phase was shaken with 250 μl 1 N NaOH (10 min), and 800 μl of supernatant was again washed with 250 μl of buffer. […] 18-OH-corticosterone (retention time: 10 min) and corticosterone (retention time: 21 min) were separated. The height of the 18-OH-corticosterone peak was used for evaluation. The percent inhibition of the 18-hydroxylation of corticosterone by the inhibitors was based on the mediums of the control incubation, taking the blind values into account.

Row | IC50 [1] | Compound | also measured
1 | 26.2 nM | Clc1ccc2c(c1)CC/C2=C\c1cccnc1 [Compound 7a, 3-[(E)-(5-Chloro-2.3-dihydro-1H-indane-1-ylidene)methyl]pyridine Hydrochloride] | –
2 | 79.4 nM | CCOc1ccc2c(c1)CC/C2=C\c1cccnc1 [Compound 19a, 3-[(E)-(5-Ethoxy-2,3-dihydro-1H-indane-1-ylidene)methyl]pyridine Hydrochloride] | –
3 | 37.4 nM | Brc1ccc2c(c1)CC/C2=C\c1cccnc1 [Compound 9a, 3-[(E)-(5-Bromo-2,3-dihydro-1H-indane-1-ylidene)methyl]pyridine Hydrochloride] | –
4 | 72.7 nM | Clc1ccc2c(c1)CC/C2=C/c1cccnc1 [Compound 7b, 3-[(Z)-(5-Chloro-2,3-dihydro-1H-indane-1-ylidene)methyl]pyridine Hydrochloride] | –
5 | 108 nM | Cc1cccc2c1CC/C2=C\c1cccnc1 [Compound 23a, 3-[(E)-(4-Methyl-2,3-dihydro-1H-indane-1-ylidene)methyl]pyridine Hydrochloride] | –
6 | 26.1 nM | Fc1ccc2c(c1)CC/C2=C/c1cccc2cnccc12 [Compound 30b, 5-[(Z)-(5-Fluoro-2,3-dihydro-1H-indane-1-ylidene)methyl]isoquinoline Hydrochloride] | –
7 | 21.6 nM | C(=C1/CCCc2ccccc21)/c1cccnc1.Cl [Compound 3a, 3-[(E)-3,4-Dihydronaphthalene-1(2H)-ylidenemethyl]pyridine Hydrochloride] | melting point: 209 °C
8 | 58.1 nM | Fc1ccc2c(c1)CC/C2=C\c1cccc2cnccc12 [Compound 30a, 5-[(E)-(5-Fluoro-2,3-dihydro-1H-indane-1-ylidene)methyl]isoquinoline Hydrochloride] | –
9 | 30.6 nM | Clc1cccc2c1CC/C2=C/c1cccnc1 [Compound 25b, 3-[(Z)-(4-Chloro-2,3-dihydro-1H-indane-1-ylidene)methyl]pyridine Hydrochloride] | –
10 | 141 nM | C(=C1\CCCc2ccccc21)/c1cccnc1.Cl [Compound 3b, 3-[(Z)-3,4-Dihydronaphthalene-1(2H)-ylidenemethyl]pyridine Hydrochloride] | melting point: 206 °C
11 | 171 nM | Brc1ccc2c(c1)CC/C2=C/c1cccnc1 [Compound 9b, 3-[(Z)-(5-Bromo-2,3-dihydro-1H-indane-1-ylidene)methyl]pyridine Hydrochloride] | –
12 | 34.2 nM | COc1ccc2c(c1)CC/C2=C\c1cccnc1 [Compound 11a, 3-[(E)-(5-Methoxy-2,3-dihydro-1H-indane-1-ylidene)methyl]pyridine Hydrochloride] | –
13 | 8.7 nM | Clc1cccc2c1CC/C2=C\c1cccnc1 [Compound 25a, 3-[(E)-(4-Chloro-2,3-dihydro-1H-indane-1-ylidene)methyl]pyridine Hydrochloride] | –
14 | 931 nM | C(=C1\CCc2ccccc21)/c1ccncc1 [Compound 2b, 4-[(Z)-2,3-Dihydro-1H-indane-1-ylidenemethyl]pyridine oxalate] | –
15 | 27.4 nM | Fc1ccc2c(c1)CC/C2=C\c1cncnc1 [Compound 28a, 5-[(E)-(5-Fluoro-2,3-dihydro-1H-indane-1-ylidene)methyl]pyrimidine Hydrochloride] | –
16 | 248 nM | CCOc1ccc2c(c1)CC/C2=C/c1cccnc1 [Compound 19b, 3-[(Z)-(5-Ethoxy-2,3-dihydro-1H-indane-1-ylidene)methyl]pyridine Hydrochloride] | –
17 | 56.6 nM | COc1ccc2c(c1)CCC/C2=C\c1cccnc1 [Compound 13a, 3-[(E)-(6-Methoxy-3,4-dihydronaphthalene-1(2H)-ylidene)methyl]pyridine Hydrochloride] | –
18 | 26.7 nM | COc1cccc2c1/C(=C/c1cccnc1)CC2 [Compound 26a, 3-[(E)-(7-Methoxy-2,3-dihydro-1H-indane-1-ylidene)methyl]pyridine Hydrochloride] | –
19 | 878 nM | COc1ccc2c(c1)CCC/C2=C/c1cccnc1.Cl [Compound 13b, 3-[(Z)-(6-Methoxy-3,4-dihydronaphthalene-1(2H)-ylidene)methyl]pyridine Hydrochloride] | melting point: 151 °C
20 | 10.6 nM | C(=C1/CCc2ccccc21)/c1cccnc1 [Compound 1a, 3-[(E)-2,3-Dihydro-1H-indane-1-ylidenemethyl]pyridine Hydrochloride] | –
21 | – | 5-[(Z)-3,4-Dihydronaphth-1(2H)-ylidenemethyl]-1H-imidazolium oxalate [Compound 41b] | % Inhibition bovine bCYP11B [2]: 95%
22 | 26.4 nM | COc1ccc2c(c1)CC/C2=C/c1cccnc1 [Compound 11b, 3-[(Z)-(5-Methoxy-2,3-dihydro-1H-indane-1-ylidene)methyl]pyridine Hydrochloride] | –
23 | 20.9 nM | Fc1cccc2c1CC/C2=C\c1cccnc1 [Compound 24a, 3-[(E)-(4-Fluoro-2,3-dihydro-1H-indane-1-ylidene)methyl]pyridine Hydrochloride] | –

Row | Compound | IC50 [1] | also measured
24 | Fc1ccc2c(c1)CC/C2=C\c1ccncc1 [Compound 6a, 4-[(E)-(5-Fluoro-2,3-dihydro-1H-indane-1-ylidene)methyl]pyridine Hydrochloride] | 1100 nM | –
25 | Fc1ccc2c(c1)CC/C2=C/c1cccnc1 [Compound 5b, 3-[(Z)-(5-Fluoro-2,3-dihydro-1H-indane-1-ylidene)methyl]pyridine Hydrochloride] | 10.8 nM | –
26 | Brc1ccc2c(c1)CC/C2=C\c1ccncc1 [Compound 10a, 4-[(E)-(5-Bromo-2,3-dihydro-1H-indane-1-ylidene)methyl]pyridine Hydrochloride] | 2640 nM | –
27 | C(=C1\CCc2ccccc21)/c1cnc[nH]1 [Compound 42b, 5-[(Z)-2,3-Dihydro-1H-ind-1-ylidenemethyl]-1H-imidazolium oxalate] | 11 nM | % Inhibition bovine bCYP11B [2]: 94%; inhibition at 1 µM [2]: ~90%
28 | 5-[(E)-(6-Chloro-3,4-dihydronaphth-1(2H)-ylidene)methyl]-1H-imidazolium chloride [Compound 46a] | 47.3 nM | % Inhibition bovine bCYP11B [2]: 66%
29 | Fc1ccc2c(c1)CC/C2=C/c1ccncc1 [Compound 6b, 4-[(Z)-(5-Fluoro-2,3-dihydro-1H-indane-1-ylidene)methyl]pyridine Hydrochloride] | 34 nM | –
30 | C(=C1\CCc2ccccc21)/c1cccnc1.Cl [Compound 1b, 3-[(Z)-2,3-Dihydro-1H-indane-1-ylidenemethyl]pyridine Hydrochloride] | 92 nM | –
31 | Fc1ccc2c(c1)CC/C2=C\c1cccnc1 [Compound 5a, 3-[(E)-(5-Fluoro-2,3-dihydro-1H-indane-1-ylidene)methyl]pyridine Hydrochloride] | 6.8 nM | –
32 | C(=C1/CCc2ccccc21)/c1cnc[nH]1 [Compound 42a, 5-[(E)-2,3-Dihydro-1H-indane-1-ylidenemethyl]-1H-imidazole] | 41 nM | inhibition at 1 µM [2]: 62%
33 | Clc1ccc2c(c1)CC/C2=C\c1ccncc1 [Compound 8a, 4-[(E)-(5-Chloro-2,3-dihydro-1H-indane-1-ylidene)methyl]pyridine Hydrochloride] | 1520 nM | –
